US12104201B2, “Engineered gyri-like mutein aptamers, and related methods” (CROSSLIFE TECHNOLOGIES INC., priority 2019, dated 2024)
Where a chain is given by its changes, count along the chain named. Names may count otherwise. “Also recorded” adds a separate entry of the source. Where two headings read alike, the source gives them in different places.

Tests used:
[1] = target: T1, CTR107 WT (C. tepidium Gyrl-like protein, wild type, SEQ ID NO:4) (Chlorobaculum tepidum, UniProt Q8KFZ1); experiment: biochemical; type: binding; details: for Kd: read-out: dissociation constant
T1 construct: begins […]
T1 sequence (Q8KFZ1 entry or part of it): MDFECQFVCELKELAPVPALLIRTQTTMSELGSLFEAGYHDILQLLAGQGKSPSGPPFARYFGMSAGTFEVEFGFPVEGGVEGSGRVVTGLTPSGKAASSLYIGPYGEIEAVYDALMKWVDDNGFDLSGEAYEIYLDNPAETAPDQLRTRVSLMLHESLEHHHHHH

[2] = target: T2, SAV2435 WT (S. aureus Gyrl-like protein, wild type, SEQ ID NO:2) (Staphylococcus aureus, UniProt A0A0H3K0Y5); type: binding
T2 construct: listing organism Escherichia coli is only the host

[3] = target: T3, LIN2189 WT (L. innocua Gyrl-like protein, wild type, SEQ ID NO:6) (Listeria innocua, UniProt Q929T5); experiment: Fluorescence binding assay (enhancement/quenching of dye fluorescence)
T3 construct: recombinant, purified
T3 sequence (Q929T5 with tags, fused parts or gaps): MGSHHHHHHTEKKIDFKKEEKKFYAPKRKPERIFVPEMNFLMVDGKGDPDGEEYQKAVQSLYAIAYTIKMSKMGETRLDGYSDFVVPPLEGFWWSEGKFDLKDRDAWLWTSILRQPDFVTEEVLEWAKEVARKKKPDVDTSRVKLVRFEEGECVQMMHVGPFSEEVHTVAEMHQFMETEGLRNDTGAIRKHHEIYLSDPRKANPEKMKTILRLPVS
Protocol: Fluorescence Binding Assay
CTR107 when added at 10 μM induced a 10-fold increase in DFHBI fluorescence (FIG. 6A).
Malachite Green fluoresces in the far-red regions when stimulated by binding aptamers, therefore we monitored its fluorescence emission at 665-720 nm after exciting at 635 nm.
Thioflavin T is a benzothiazole dye that has also been used in many fluorescence applications. […] The Corn aptamer is able to bind to two Thioflavin T molecules at a homodimer interface formed by G-quadruplexes. We tested whether Gyrl-like proteins could function as fluorescence enhancement aptamers of Thioflavin T. Thioflavin T has excitation and emission maxima of […], respectively. We probed the fluorescence enhancing properties of SAV2435, CTR107 and LIN2189 variants on Thioflavin T (FIG. 8). […] All other variants display either a small 4-6 fold increase or no increase in Thioflavin T fluorescence.

[4] = system: C. tepidium CTR107 variant Y106W (SEQ ID NO:20); experiment: biochemical; type: binding
[5] = target: T4, C. tepidium CTR107 variant Y106W (SEQ ID NO:20) (Chlorobaculum tepidum, UniProt Q8KFZ1, Y106W); experiment: biochemical; type: binding
T4 sequence (Q8KFZ1 with tags, fused parts or gaps Y106W): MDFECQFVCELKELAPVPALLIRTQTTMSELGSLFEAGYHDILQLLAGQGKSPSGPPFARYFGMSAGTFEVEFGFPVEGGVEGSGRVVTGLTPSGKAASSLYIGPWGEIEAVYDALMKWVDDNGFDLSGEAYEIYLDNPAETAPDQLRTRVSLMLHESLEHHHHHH

[6] = target: S. aureus SAV2435 variant E135Q (SEQ ID NO:14) (Staphylococcus aureus, UniProt A0A0H3K0Y5, E135Q/V105W); type: binding; details: Oxazine 170
[7] = target: S. aureus SAV2435 variant V105W (SEQ ID NO:10) (Staphylococcus aureus, UniProt A0A0H3K0Y5, V105W); type: binding
[8] = target: S. aureus SAV2435 variant Y137W (SEQ ID NO:16) (Staphylococcus aureus, UniProt A0A0H3K0Y5, V105W/Y137W); type: binding; details: Oxazine 170
[9] = target: S. aureus SAV2435 variant P106W (SEQ ID NO:12) (Staphylococcus aureus, UniProt A0A0H3K0Y5, P106W); type: binding
[10] = target: S. aureus SAV2435 variant N27W (SEQ ID NO:8) (Staphylococcus aureus, UniProt A0A0H3K0Y5, Q27W); type: binding; details: Oxazine 170
[11] = target: T5, C. tepidium CTR107 variant E133Q (SEQ ID NO:22) (Chlorobaculum tepidum, UniProt Q8KFZ1, E133Q); type: binding; details: 500 nM SYTO9
T5 sequence (Q8KFZ1 with tags, fused parts or gaps E133Q): T4 sequence (Q8KFZ1 with tags, fused parts or gaps Y106W) with W106Y, E133Q

[12] = target: C. tepidium CTR107 variant E36R (SEQ ID NO:18) (Chlorobaculum tepidum, UniProt Q8KFZ1, E36R); type: binding; details: 500 nM SYTO9
Chain of C. tepidium CTR107 variant E36R (SEQ ID NO:18) (Q8KFZ1 entry or part of it E36R): as the sequence (Q8KFZ1 entry or part of it) above, with E36R counted along it

[13] = Acridine Orange fluorescence assay; details: 500 nM Acridine Orange
[14] = Colorimetric conversion of Iodonitrotetrazolium to Formazan; details: 100 μM NADH; 500 μM Iodonitrotetrazolium; 5 minutes
[15] = FAM fluorescence quenching assay; type: biochemical; details: 1 μM FAM, saturating protein
Excerpt: The fluorescence enhancing or quenching properties of Gyrl-like proteins can be used as a tool for identifying aptamers for target organic compounds. Building on Examples 1-8 we designed a protocol for identifying aptamers that bind to fluorescent dyes 5(6)-Carboxyfluorescein (FAM) and 5-Carboxytetramethylrhodamine (TAMRA) (FIG. 4). Both dyes are similar in structure and fluorescence in the green and red regions, respectively. The binding of FAM and TAMRA by Gyrl-like variant aptamers will result in enhancement or quenching of fluorescence. The invention method starts with screening our 3-selected wildtype Gyrl-like proteins to determine which can alter the fluorescence of FAM in solution (FIG. 11A).

TAMRA-DNA = experiment: TAMRA-labeled DNA fluorescence quenching assay; details: 5 nM protein
[16] = pH stability of Thiazole Orange fluorescence module
[17] = UV fluorescence quenching of Oxazine 170 and reversibility; details: UV light
[18] = 500 nM Malachite Green, 10 μM protein, ex 635 nm, em 665-720 nm
[19] = 100 nM Oxazine 170, 100 nM protein
[20] = 500 nM Oxazine 170, saturating protein
[21] = 1 μM Thiazole Orange, saturating protein
[22] = 1 μM SYTO9, 10 μM protein, em 665-720 nm
[23] = 1 μM SYTO9, 10 μM protein, ex 470 nm, em 510-580 nm

CC1=N/C(=C\c2cc(F)c(O)c(F)c2)C(=O)N1C [DFHBI]
increase in fluorescence ([1]; DFHBI, 10 μM protein): 10 fold
increase in fluorescence (green channel) ([2]; 500 nM DFHBI, 10 μM protein): 20 fold
effect on fluorescence ([3]; 500 nM DFHBI): no effect on fluorescence

COc1cccc2c1C(=O)c1c(O)c3c(c(O)c1C2=O)C[C@@](O)(C(C)=O)C[C@@H]3O[C@H]1C[C@H](N)[C@H](O)[C@H](C)O1 [Daunorubicin]
fluorescence decrease (green channel) ([1]; 50 μM daunorubicin): greater than 2 fold
Kd ([1]; Daunorubicin, nonlinear regression, Hill equation): 4000 nM
increase in binding affinity compared to wildtype CTR107 ([4]; Daunorubicin): approximately 100 fold
Kd [5]: 42 nM
fluorescence decrease (green channel) ([5]; 50 μM daunorubicin): 3 fold

CN(C)c1ccc(C(=C2C=CC(=[N+](C)C)C=C2)c2ccccc2)cc1 [Malachite Green]
increase in fluorescence (red channel) [1, 18]: 18 fold
increase in fluorescence (red channel) [2, 18]: 10 fold
effect on fluorescence enhancement ([3]; 500 nM Malachite Green): no effect on fluorescence enhancement

CCN=c1cc2oc3cc(NCC)c(C)cc3nc-2c2ccccc12 [Oxazine 170]
reduction in fluorescence [6]: 303 fold
shut-off of fluorescence [6]: ~100%
fluorescence decrease at 100 nM protein [7, 19]: 60%
reduction in fluorescence (red channel) [1, 20]: 6 fold
quenching potency relative to CTR107 WT ([4]; Oxazine 170): 5 fold
decrease in fluorescence ([5]; Oxazine 170): 47 fold
quenching effect [8]: small decrease
fluorescence decrease at 100 nM protein [9, 19]: 60%
protein concentration for 50% quenching ([2]; 100 nM Oxazine 170): 10 to 50 nM
fluorescence shut-off at 100 nM protein [2, 19]: ~100%
decrease in fluorescence (red channel) [2, 20]: 303 fold
shut-off of fluorescence [2, 20]: ~100%
reduction in fluorescence [10]: 529 fold
shut-off of fluorescence [10]: ~100%

CN1C(=Cc2cc[n+](C)c3ccccc23)Sc2ccccc21 [Thiazole Orange]
fluorescence enhancement vs. dye alone (red channel) ([7]; Thiazole Orange): 50 fold
enhancement relative to wildtype ([7]; Thiazole Orange, vs SAV2435 WT): 3 fold
effect on fluorescence [1, 21]: no effects; also recorded: no enhancement
fluorescence enhancement (green channel) ([5]; Thiazole Orange): 13 fold
fluorescence enhancement (red channel) ([5]; Thiazole Orange): 20 fold
fluorescence enhancement vs. dye alone (red channel) ([9]; Thiazole Orange): 50 fold
enhancement relative to wildtype ([9]; Thiazole Orange, vs SAV2435 WT): 3 fold
increase in fluorescence (green channel) [2, 21]: 50 fold
increase in fluorescence (red channel) [2, 21]: 5 fold
fluorescence increase (channel not stated) ([2]; Thiazole Orange): 20 fold
effect on fluorescence [3, 21]: no effects

Cc1ccc2c(c1)sc(-c1ccc(N(C)C)cc1)[n+]2C [Thioflavin T]
fluorescence enhancement (green and red channel) ([1]; Thioflavin T): 50 fold
fluorescence enhancement (green channel) ([3]; Thioflavin T): 13 fold
fluorescence enhancement (red channel) ([3]; Thioflavin T): 50 fold

SYTO9
fluorescence enhancement (red channel) [1, 22]: 33 fold
fluorescence enhancement (green channel) [1, 23]: 84 fold
Kd ([1]; SYTO9, estimated, fluorescence enhancement vs. protein concentration, Hill fit): 302 nM
fluorescence enhancement (green channel) ([5]; 500 nM SYTO9): 115 fold
fluorescence enhancement (red channel) ([5]; 500 nM SYTO9): 19 fold
fluorescence enhancement (green channel) [11]: 157 fold
fluorescence enhancement (red channel) [11]: 55 fold
fluorescence enhancement compared to wildtype CTR107 [12]: weaker enhancement than wildtype
fluorescence enhancement (red channel) [2, 22]: 11 fold
fluorescence enhancement (green channel) [2, 23]: 21 fold
fluorescence enhancement (red and green channel) ([3]; SYTO9): small enhancement

B1: CTR107 E133Q: CTR107 variant aptamer, SEQ ID NO:22 (protein, listed as Escherichia coli)
chain: T4 sequence (Q8KFZ1 with tags, fused parts or gaps Y106W) with W106Y, E133Q
Acridine Orange fluorescence increase [13]: doubled the fluorescence intensity
color change of Iodonitrotetrazolium with NADH [14]: faint red signal

B2: LIN2189 E157A: LIN2189 variant aptamer, SEQ ID NO:28 (protein, listed as Escherichia coli)
chain: T3 sequence (Q929T5 with tags, fused parts or gaps) with E165A
decrease in FAM fluorescence [15]: no changes in fluorescence quenching compared to LIN2189 WT
effect on 100 nM TAMRA-DNA fluorescence (TAMRA-DNA): no effects on TAMRA fluorescence

B3: SAV2435 P106W: SAV2435 variant aptamer, SEQ ID NO:12 (protein, listed as Escherichia coli)
chain: MEYQLQQLASLTLVGIKETYENGRQAQQHIAGFWQRCYQEGVIADLQLKNNGDLAGILGLCIPELDGKMSYMIAVTGDNSADIAKYDVITLASSKYMVFEAQGAVWKAVQQKMEEVHHYIHQYQANTVKSAPFFELYQDGDTTSEKYITEIWMPVKGLEHHHHHH
Acridine Orange fluorescence increase [13]: doubled the fluorescence intensity
decrease in Thiazole Orange fluorescence under acidic conditions ([16]; pH 3): 2 fold
stability of Thiazole Orange fluorescence under basic conditions ([16]; pH 11): slightly more stable than acidic

B4: SAV2435 Y137W: SAV2435 variant aptamer, SEQ ID NO:16 (protein, listed as Escherichia coli)
chain: B3 chain with V105W, W106P, Y137W
shut-off of Oxazine 170 red UV fluorescence [17]: non-quencher

B5: SAV2435 E135Q: SAV2435 variant aptamer, SEQ ID NO:14 (protein, listed as Escherichia coli)
chain: B3 chain with V105W, W106P, E135Q
Acridine Orange fluorescence increase [13]: doubled the fluorescence intensity
